Literature values as cited in PMC6966182 (CPT: Pharmacometrics & Systems Pharmacology, 2019).
Where two headings read alike, the source gives them in different places.

How the values were obtained:
HIV = conditions: TFV‐DP concentration in PBMC
[1] = not given; remark: listed apart in the source
PBMC = conditions: SimCYP input
[2] = absorption rate constant, SimCYP input
[3] = not given; remark: listed apart in the source
[4] = not given; remark: listed apart in the source
[5] = not given; remark: listed apart in the source
OAT3 = conditions: read-out: OAT3 Transporter (K i) (renal); SimCYP input
[6] = SD TFV + PRO, healthy volunteers, GM (95% confidence interval)
[7] = SD TFV–PRO, healthy volunteers, GM (95% confidence interval)

In the case of `CC(Cn1cnc2c(N)ncnc21)OCP(=O)(O)OP(=O)(O)OP(=O)(O)O` (stereo in doubt) [TFV‐DP, tenofovir di‐phosphate], the “increase at the intracellular level with PRO” value (at 24 hours) is given as ~ 30%, the “accumulation of TFV‐DP in PBMCs” value (daily TDF administration) is given as “greater than eightfold” and the EC90 (HIV) is given as 16 fmol/10^6 cells.

For `C[C@H](Cn1cnc2c(N)ncnc21)OCP(=O)(O)O` [TFV, tenofovir], the “TFV in circulation available for transporter‐mediated secretion” value [1] is listed as 20–30%, the bioavailability [1] is listed as ~ 25% and the “increase in TFV systemic exposure with food” value ([1]; TDF given with high‐fat or light meals, ref Other studies) is listed as ~ 35%. For the same compound, the “Efflux Clint,t (PBMC additional organ)” value (PBMC) was 1.288 µL/minute11, 12, the “Uptake J max (PBMC additional organ)” value (PBMC) was 10.44 pmol/minute/whole organ11, 12 and the “Uptake K m (PBMC additional organ)” value (PBMC) was 0.355 µM11, 12. For the same compound, the k a [2] was 1.03 1/h11, the “AUC0‐INF OBS” value [3, 6] was 6,349 (5,598–7,200) ng • hour/mL and the “Cmax OBS” value [3, 6] was 538 (494–585) ng/mL. The “AUC0‐INF OBS” value [3, 7] was 3,973 (3,576–4,415) ng • hour/mL, the “CLr OBS” value [3, 7] was 15.4 (12.2–19.4) L/hour and the “Cmax OBS” value [3, 7] was 529 (451–620) ng/mL. For the same compound, the “increase in single‐dose TFV overall plasma exposure (AUC0‐INF)” value ([3]; in the presence of 2 g PRO, fasted healthy volunteers, as predicted) was 60%, the “change in TFV Cmax” value ([3]; in the presence of 2 g PRO, single dose, as predicted) was “nearly unchanged” and the “fraction unbound (f u)” value [4] was > 0.9.

For `CCCN(CCC)S(=O)(=O)c1ccc(C(=O)O)cc1` [PRO, probenecid], the maximum tolerated dose [5] is given as 2 g and the Ki (OAT3) is given as […].
